Results as given in PubChem BioAssay AID1963826 (Molecular Pharmacology Branch, DTP, NCI, 2024).

Test system: 926638-142-R-J1-PDC complex spheroid viability
Experiment: Anticancer human tumor 926638-142-R-J1-PDC patient-derived endometrial carcinoma cell line growth inhibition [POLQ]
Settings: for IC50: curve of first compound; for viability, T/C: stronger effect = lower value
How it was run: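 Complex spheroid viability model combining PDC tumour cells with endothelial (HUVEC) and MSC stromal cells. Novobiocin, ART-558 or RP6685 were tested singly and in combination with standard and investigational anticancer drugs. Each was titrated in half-log steps from near clinical Cmax, or from 10 microM where Cmax was unknown.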

[1] = second compound 0.0316 µM, first compound 0.0316 µM
[2] = second compound 0.0316 µM, first compound 0.1 µM
[3] = second compound 0.0316 µM, first compound 0.316 µM
[4] = second compound 0.0316 µM, first compound 1 µM
[5] = second compound 0.0316 µM, first compound 3.16 µM
[6] = second compound 0.0316 µM, first compound 10 µM
[7] = second compound 0.1 µM, first compound 0.0316 µM
[8] = second compound 0.1 µM, first compound 0.1 µM
[9] = second compound 0.1 µM, first compound 0.316 µM
[10] = second compound 0.1 µM, first compound 1 µM
[11] = second compound 0.1 µM, first compound 3.16 µM
[12] = second compound 0.1 µM, first compound 10 µM
[13] = second compound 0.316 µM, first compound 0.0316 µM
[14] = second compound 0.316 µM, first compound 0.1 µM
[15] = second compound 0.316 µM, first compound 0.316 µM
[16] = second compound 0.316 µM, first compound 1 µM
[17] = second compound 0.316 µM, first compound 3.16 µM
[18] = second compound 0.316 µM, first compound 10 µM
[19] = second compound 1 µM, first compound 0.0316 µM
[20] = second compound 1 µM, first compound 0.1 µM
[21] = second compound 1 µM, first compound 0.316 µM
[22] = second compound 1 µM, first compound 1 µM
[23] = second compound 1 µM, first compound 3.16 µM
[24] = second compound 1 µM, first compound 10 µM
[25] = second compound 3.16 µM, first compound 0.0316 µM
[26] = second compound 3.16 µM, first compound 0.1 µM
[27] = second compound 3.16 µM, first compound 0.316 µM
[28] = second compound 3.16 µM, first compound 1 µM
[29] = second compound 3.16 µM, first compound 3.16 µM
[30] = second compound 3.16 µM, first compound 10 µM
[31] = second compound 10 µM, first compound 0.0316 µM
[32] = second compound 10 µM, first compound 0.1 µM
[33] = second compound 10 µM, first compound 0.316 µM
[34] = second compound 10 µM, first compound 1 µM
[35] = second compound 10 µM, first compound 3.16 µM
[36] = second compound 10 µM, first compound 10 µM
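Note: spheroids exposed to drugs for one week before readout.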
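Throughout, for viability, T/C: percent viability relative to DMSO vehicle control wells set as 100%.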

C=CC(=O)N1CCN(c2nc(=O)n(-c3c(C)ccnc3C(C)C)c3nc(-c4c(O)cccc4F)c(F)cc23)C(C)C1 (stereo unspecified) + Cc1cccc(N(C)C(=O)C2C(O)CCN2c2nc(C)cc(C(F)(F)F)c2C#N)c1
IC50 (second compound 0.0316 µM): > 10000 nM | IC50 (second compound 0.1 µM): > 10000 nM | IC50 (second compound 0.316 µM): > 10000 nM | IC50 (second compound 1 µM): > 10000 nM | IC50 (second compound 3.16 µM): 6590 nM | IC50 (second compound 10 µM): > 10000 nM | viability, T/C [1]: 84.5% | viability, T/C [2]: 78% | viability, T/C [3]: 67.2% | viability, T/C [4]: 76.1% | viability, T/C [5]: 66% | viability, T/C [6]: 59.1% | viability, T/C [7]: 82.8% | viability, T/C [8]: 78.7% | viability, T/C [9]: 94% | viability, T/C [10]: 76.6% | viability, T/C [11]: 70.8% | viability, T/C [12]: 65.5% | viability, T/C [13]: 97.4% | viability, T/C [14]: 90.3% | viability, T/C [15]: 91.5% | viability, T/C [16]: 74.2% | viability, T/C [17]: 70% | viability, T/C [18]: 55.6% | viability, T/C [19]: 74.8% | viability, T/C [20]: 84.7% | viability, T/C [21]: 79.2% | viability, T/C [22]: 69.9% | viability, T/C [23]: 72.7% | viability, T/C [24]: 49.6% | viability, T/C [25]: 91.8% | viability, T/C [26]: 82.7% | viability, T/C [27]: 84.7% | viability, T/C [28]: 86% | viability, T/C [29]: 74.1% | viability, T/C [30]: 36.1% | viability, T/C [31]: 90.7% | viability, T/C [32]: 80.8% | viability, T/C [33]: 94.9% | viability, T/C [34]: 77% | viability, T/C [35]: 78% | viability, T/C [36]: 52.9%

CC1COCCN1c1cc(C2(O)CC3CCC(C2)O3)c2cnn(-c3ccn[nH]3)c2n1 (stereo unspecified) + Cc1cccc(N(C)C(=O)C2C(O)CCN2c2nc(C)cc(C(F)(F)F)c2C#N)c1
IC50 (second compound 0.0316 µM): 173 nM | IC50 (second compound 0.1 µM): 220 nM | IC50 (second compound 0.316 µM): 194 nM | IC50 (second compound 1 µM): 201 nM | IC50 (second compound 3.16 µM): 143 nM | IC50 (second compound 10 µM): 198 nM | viability, T/C [1]: 102% | viability, T/C [2]: 64.7% | viability, T/C [3]: 34.5% | viability, T/C [4]: 13.3% | viability, T/C [5]: 8.43% | viability, T/C [6]: 2.27% | viability, T/C [7]: 100% | viability, T/C [8]: 79.8% | viability, T/C [9]: 35.8% | viability, T/C [10]: 12.2% | viability, T/C [11]: 6.79% | viability, T/C [12]: 1.49% | viability, T/C [13]: 88.7% | viability, T/C [14]: 67.5% | viability, T/C [15]: 37.9% | viability, T/C [16]: 11.6% | viability, T/C [17]: 9.91% | viability, T/C [18]: 1.44% | viability, T/C [19]: 85.7% | viability, T/C [20]: 71% | viability, T/C [21]: 35.8% | viability, T/C [22]: 14% | viability, T/C [23]: 7.71% | viability, T/C [24]: 1.6% | viability, T/C [25]: 85.9% | viability, T/C [26]: 61% | viability, T/C [27]: 26.1% | viability, T/C [28]: 13.9% | viability, T/C [29]: 7.14% | viability, T/C [30]: 1.53% | viability, T/C [31]: 97.7% | viability, T/C [32]: 72.9% | viability, T/C [33]: 33.5% | viability, T/C [34]: 13.2% | viability, T/C [35]: 6.57% | viability, T/C [36]: 1.3%

CCc1cc2c(N3CCc4c(cc(Cn5ccnc5)cc4-c4cn(C)nc4C(F)(F)F)C3=O)cc(C)nc2c(OC)n1 + Cc1cccc(N(C)C(=O)C2C(O)CCN2c2nc(C)cc(C(F)(F)F)c2C#N)c1
IC50 (second compound 0.0316 µM): 397 nM | IC50 (second compound 0.1 µM): 658 nM | IC50 (second compound 0.316 µM): 700 nM | IC50 (second compound 1 µM): 554 nM | IC50 (second compound 3.16 µM): 467 nM | IC50 (second compound 10 µM): 257 nM | viability, T/C [1]: 77.9% | viability, T/C [2]: 72% | viability, T/C [3]: 45.9% | viability, T/C [4]: 44.4% | viability, T/C [5]: 31.8% | viability, T/C [6]: 26.9% | viability, T/C [7]: 90.2% | viability, T/C [8]: 71% | viability, T/C [9]: 59.3% | viability, T/C [10]: 44% | viability, T/C [11]: 38.1% | viability, T/C [12]: 31.4% | viability, T/C [13]: 94.8% | viability, T/C [14]: 65.3% | viability, T/C [15]: 56.3% | viability, T/C [16]: 48.4% | viability, T/C [17]: 43.2% | viability, T/C [18]: 22.5% | viability, T/C [19]: 69% | viability, T/C [20]: 80.6% | viability, T/C [21]: 58.1% | viability, T/C [22]: 39.8% | viability, T/C [23]: 34.2% | viability, T/C [24]: 26.6% | viability, T/C [25]: 91.9% | viability, T/C [26]: 66.2% | viability, T/C [27]: 56.4% | viability, T/C [28]: 38% | viability, T/C [29]: 44% | viability, T/C [30]: 27.1% | viability, T/C [31]: 66.5% | viability, T/C [32]: 64.7% | viability, T/C [33]: 45.1% | viability, T/C [34]: 37.1% | viability, T/C [35]: 36% | viability, T/C [36]: 26.8%
